Assay results published in patent US11209732B2, “Near infrared absorbing composition, film, infrared cut filter, solid image pickup element, infrared absorber, and compound” (FUJIFILM Corporation, priority 2015, dated 2021).

Columns and labels:
[1] = Solubility of compound in solvents at 25° C.; assay type: physicochemical; details: for Solubility PGMEA: propylene glycol monomethyl ether acetate; for Solubility Cyclohexanone / Solubility in each of the solvents (in words): cyclohexanone; for Solubility in each of the solvents (in words): PGMEA; for Solubility Toluene / Solubility in each of the solvents (in words): toluene
Experimental: The solubility of each of the compounds in each of solvents (cyclohexanone, propylene glycol monomethyl ether acetate (PGMEA), toluene) at 25° C. was evaluated based on the following criteria.
A: the solubility of the compound in the solvent at 25° C. was 2 mass % or higher

[2] = Absorption maximum of compound in chloroform solution; assay type: physicochemical; details: absorbance at maximum 0.7 to 1.2
Experimental: The absorption maximum of the squarylium compound (1) is a value measured using a chloroform solution of the squarylium compound that is adjusted such that an absorbance at the absorption maximum is in a range of 0.7 to 1.2.
Each of the obtained compounds was dissolved in chloroform to prepare a solution having a concentration of 1 g/L. Next, the solution in which each of the compounds was dissolved was appropriately diluted such that an absorbance at an absorption maximum in an absorption spectrum thereof was in a range of 0.7 to 1.2, and the absorption maximum (λmax) thereof was measured using UV-1800 (manufactured by Shimadzu Corporation).

| SMILES | Solubility Cyclohexanone [1] | Solubility PGMEA [1] | Solubility Toluene [1] | Absorption Maximum (nm) [2] [nm] | Solubility in each of the solvents (in words) [1] |
| --- | --- | --- | --- | --- | --- |
| CCCCCCC1=CC(=[N+](c2ccc3ccccc3c2)c2ccc3ccccc3c2)S/C1=C1\C(=O)C(c2sc(N(c3ccc4ccccc4c3)c3ccc4ccccc4c3)cc2CCCCCC)=C1[O-] [Compound 1] | A (the solubility of the compound in the solvent at 25 °C was 2 mass % or higher) | B (the solubility of the compound in the solvent at 25 °C was 1 mass % or higher and lower than 2 mass %) | A (the solubility of the compound in the solvent at 25 °C was 2 mass % or higher) | 719 |  |
| CCCCCCCCc1ccc(N(c2ccc(CCCCCCCC)cc2)c2cc3sc(C4=C([O-])/C(=c5\cc6c(s5)=CC(=[N+](c5ccc(CCCCCCCC)cc5)c5ccc(CCCCCCCC)cc5)S6)C4=O)cc3s2)cc1 [Compound 2] | A (the solubility of the compound in the solvent at 25 °C was 2 mass % or higher) | B (the solubility of the compound in the solvent at 25 °C was 1 mass % or higher and lower than 2 mass %) | B (the solubility of the compound in the solvent at 25 °C was 1 mass % or higher and lower than 2 mass %) | 770 |  |
| CCCCCCCCc1ccc(N(c2ccc(CCCCCCCC)cc2)c2ccc(/C=C/c3ccc(C4=C([O-])/C(=c5\cc/c(=C\C=C6/C=CC(=[N+](c7ccc(CCCCCCCC)cc7)c7ccc(CCCCCCCC)cc7)S6)s5)C4=O)s3)s2)cc1 [Compound 4] | A (the solubility of the compound in the solvent at 25 °C was 2 mass % or higher) | B (the solubility of the compound in the solvent at 25 °C was 1 mass % or higher and lower than 2 mass %) | B (the solubility of the compound in the solvent at 25 °C was 1 mass % or higher and lower than 2 mass %) | 860 |  |
| CCCCCCc1cc(-c2ccc(N(c3ccc(C)cc3)c3ccc(C)cc3)s2)sc1C1=C([O-])/C(=c2/s/c(=C3\C=CC(=[N+](c4ccc(C)cc4)c4ccc(C)cc4)S3)cc2CCCCCC)C1=O [Compound 5] | A (the solubility of the compound in the solvent at 25 °C was 2 mass % or higher) | B (the solubility of the compound in the solvent at 25 °C was 1 mass % or higher and lower than 2 mass %) | A (the solubility of the compound in the solvent at 25 °C was 2 mass % or higher) |  |  |
| O=C1C(c2sc(N(c3ccccc3)c3ccccc3)nc2-c2ccccc2)=C([O-])/C1=C1/SC(=[N+](c2ccccc2)c2ccccc2)N=C1c1ccccc1 [Compound R-1, reference compound] | C (the solubility of the compound in the solvent at 25 °C was 0.5 mass % or higher and lower than 1 mass %) | D (the solubility of the compound in the solvent at 25 °C was lower than 0.5 mass %) | C (the solubility of the compound in the solvent at 25 °C was 0.5 mass % or higher and lower than 1 mass %) | 687 | insufficient |
| CCCCCCCCCCCCN(c1ccccc1)c1ccc(C2=C([O-])/C(=C3C=C/C(=[N+](\CCCCCCCCCCCC)CCNS(=O)(=O)CCCC)C=C/3O)C2=O)s1 [Compound R-2, reference compound] | A (the solubility of the compound in the solvent at 25 °C was 2 mass % or higher) | A (the solubility of the compound in the solvent at 25 °C was 2 mass % or higher) | A (the solubility of the compound in the solvent at 25 °C was 2 mass % or higher) | 653 |  |
| CCCCc1ccc(N(c2ccc(CCCC)cc2)c2ccc(C3=C([O-])/C(=C4\C=CC(=[N+](c5ccc(CCCC)cc5)c5ccc(CCCC)cc5)S4)C3=O)s2)cc1 [Compound R-3, reference compound] | B (the solubility of the compound in the solvent at 25 °C was 1 mass % or higher and lower than 2 mass %) | D (the solubility of the compound in the solvent at 25 °C was lower than 0.5 mass %) | B (the solubility of the compound in the solvent at 25 °C was 1 mass % or higher and lower than 2 mass %) | 704 | insufficient |
